Results from the OligoGym collection.
Only the 19 paired bases of each siRNA are shown; overhangs and chemistry are not given here.

Biological target: Renilla luciferase
Assay: five studies, different assays
Conditions: siRNA
Also: test concentration or dose not given here.

Q: “sense AAGUGUAGUAGAUGUGAUU / antisense AAUCACAUCUACUACACUU” was tested. Which target inhibition did it give?
A: 87.9%

Q: How did the target inhibition turn out when “sense AGAUGCACCUGAUGAAAUG / antisense CAUUUCAUCAGGUGCAUCU” was run?
A: 63.9%

Q: How did the target inhibition turn out when “sense AGUUCGUCGUCCAACAUUA / antisense UAAUGUUGGACGACGAACU” was run?
A: 66.5%

Q: For “sense AUCAUGAGAAAGUUAGAAC / antisense GUUCUAACUUUCUCAUGAU”, which target inhibition is on record?
A: 47.3%

Q: For “sense CAGCAUAUCUUGAACCAUU / antisense AAUGGUUCAAGAUAUGCUG”, which target inhibition is on record?
A: 83.7%

Q: How did the target inhibition turn out when “sense GAACAAAGGAAACGGAUGA / antisense UCAUCCGUUUCCUUUGUUC” was run?
A: 84.4%

Q: How did the target inhibition turn out when “sense GAAUUUGCAGCAUAUCUUG / antisense CAAGAUAUGCUGCAAAUUC” was run?
A: 84.8%

Q: How did the target inhibition turn out when “sense GAUCAAAUCUGAAGAAGGA / antisense UCCUUCUUCAGAUUUGAUC” was run?
A: 90.9%

Q: “sense GCCAAGAAGUUUCCUAAUA / antisense UAUUAGGAAACUUCUUGGC” was tested. Which target inhibition did it give?
A: 72.2%

Q: “sense UCUACGUGCAAGUGAUGAU / antisense AUCAUCACUUGCACGUAGA” was tested. Which target inhibition did it give?
A: 89.5%

Q: “sense UCUUACUGCAUGGUUUGAA / antisense UUCAAACCAUGCAGUAAGA” was tested. Which target inhibition did it give?
A: 52.3%

Q: With “sense UUUAUGGCGACAUGUUGUG / antisense CACAACAUGUCGCCAUAAA” as the substance, how does the target inhibition read?
A: 29.4%

Biological target: GAPDH
Assay: five studies, different assays
Conditions: siRNA

Q: Which target inhibition does the source give for “sense AAGUAUGACAACAGCCUCA / antisense UGAGGCUGUUGUCAUACUU” here?
A: 94.2%

Q: How did the target inhibition turn out when “sense ACCAUGAGAAGUAUGACAA / antisense UUGUCAUACUUCUCAUGGU” was run?
A: 92.5%

Q: “sense AUGACAACAGCCUCAAGAU / antisense AUCUUGAGGCUGUUGUCAU” was tested. Which target inhibition did it give?
A: 58.3%

Q: “sense CAGGGGGGAGCCAAAAGGG / antisense CCCUUUUGGCUCCCCCCUG” was tested. Which target inhibition did it give?
A: -24.4%

Q: “sense CAUGAGAAGUAUGACAACA / antisense UGUUGUCAUACUUCUCAUG” was tested. Which target inhibition did it give?
A: 92.4%

Q: Which target inhibition does the source give for “sense CCAAAAGGGUCAUCAUCUC / antisense GAGAUGAUGACCCUUUUGG” here?
A: 93.9%

Q: “sense CCCCUGGCCAAGGUCAUCC / antisense GGAUGACCUUGGCCAGGGG” was tested. Which target inhibition did it give?
A: -2.51%

Q: How did the target inhibition turn out when “sense GACAACAGCCUCAAGAUCA / antisense UGAUCUUGAGGCUGUUGUC” was run?
A: 94.2%

Q: With “sense GAUCAUCAGCAAUGCCUCC / antisense GGAGGCAUUGCUGAUGAUC” as the substance, how does the target inhibition read?
A: 70.8%

Q: Which target inhibition does the source give for “sense GCACCACCAACUGCUUAGC / antisense GCUAAGCAGUUGGUGGUGC” here?
A: 38.6%

Q: For “sense GGAGCCAAAAGGGUCAUCA / antisense UGAUGACCCUUUUGGCUCC”, which target inhibition is on record?
A: 88.7%

Q: With “sense GUAUGACAACAGCCUCAAG / antisense CUUGAGGCUGUUGUCAUAC” as the substance, how does the target inhibition read?
A: 77.6%

Q: Which target inhibition does the source give for “sense GUCAUCAUCUCUGCCCCCU / antisense AGGGGGCAGAGAUGAUGAC” here?
A: 69.8%

Q: With “sense GUGUGAACCAUGAGAAGUA / antisense UACUUCUCAUGGUUCACAC” as the substance, how does the target inhibition read?
A: 92.7%

Q: Which target inhibition does the source give for “sense UCAUGGGUGUGAACCAUGA / antisense UCAUGGUUCACACCCAUGA” here?
A: 60.5%

Q: Which target inhibition does the source give for “sense UGACAACUUUGGUAUCGUG / antisense CACGAUACCAAAGUUGUCA” here?
A: 43%

Q: How did the target inhibition turn out when “sense UGCUGAUGCCCCCAUGUUC / antisense GAACAUGGGGGCAUCAGCA” was run?
A: 12.7%

Q: Which target inhibition does the source give for “sense UGGCCAAGGUCAUCCAUGA / antisense UCAUGGAUGACCUUGGCCA” here?
A: 91.5%

Q: “sense UGUUCGUCAUGGGUGUGAA / antisense UUCACACCCAUGACGAACA” was tested. Which target inhibition did it give?
A: 80.3%

Biological target: PLK1
Assay: five studies, different assays
Conditions: siRNA

Q: “sense AGAAUGAAUACAGUAUUCC / antisense GGAAUACUGUAUUCAUUCU” was tested. Which target inhibition did it give?
A: 58%

Q: Which target inhibition does the source give for “sense AGAUCACCCUCCUUAAAUA / antisense UAUUUAAGGAGGGUGAUCU” here?
A: 72.5%

Q: How did the target inhibition turn out when “sense AGAUUGUGCCUAAGUCUCU / antisense AGAGACUUAGGCACAAUCU” was run?
A: 68.5%

Q: With “sense AUGAAGAUCUGGAGGUGAA / antisense UUCACCUCCAGAUCUUCAU” as the substance, how does the target inhibition read?
A: 55%

Q: With “sense AUGACUCAACACGCCUCAU / antisense AUGAGGCGUGUUGAGUCAU” as the substance, how does the target inhibition read?
A: 58.4%

Q: Which target inhibition does the source give for “sense CAGUUUCGAGGUGGAUGUG / antisense CACAUCCACCUCGAAACUG” here?
A: 52.6%

Q: Which target inhibition does the source give for “sense GAUGUCCAUGGAAAUAUCC / antisense GGAUAUUUCCAUGGACAUC” here?
A: 43.9%

Q: With “sense GGGCGGCUUUGCCAAGUGC / antisense GCACUUGGCAAAGCCGCCC” as the substance, how does the target inhibition read?
A: 30.6%

Q: Which target inhibition does the source give for “sense UAUUUCCGCAAUUACAUGA / antisense UCAUGUAAUUGCGGAAAUA” here?
A: 57.1%

Q: For “sense UUUGAGACUUCUUGCCUAA / antisense UUAGGCAAGAAGUCUCAAA”, which target inhibition is on record?
A: 82.2%

Biological target: DBI
Assay: five studies, different assays
Conditions: siRNA

Q: For “sense AAACGAUUACUGACUUUCC / antisense GGAAAGUCAGUAAUCGUUU”, which target inhibition is on record?
A: -18.6%

Q: How did the target inhibition turn out when “sense AAAGUAGAAGAGCUAAAGA / antisense UCUUUAGCUCUUCUACUUU” was run?
A: 71.8%

Q: How did the target inhibition turn out when “sense AAGAGCUAAAGAAAAAAUA / antisense UAUUUUUUCUUUAGCUCUU” was run?
A: 68%

Q: How did the target inhibition turn out when “sense AAGAUGCCAUGAAAGCUUA / antisense UAAGCUUUCAUGGCAUCUU” was run?
A: 50.7%

Q: With “sense ACUGAGACAAUGCCUUGUU / antisense AACAAGGCAUUGUCUCAGU” as the substance, how does the target inhibition read?
A: 6.01%

Q: For “sense AGAUGCCAUGAAAGCUUAC / antisense GUAAGCUUUCAUGGCAUCU”, which target inhibition is on record?
A: -9.13%

Q: For “sense UGAAAGCUUACAUCAACAA / antisense UUGUUGAUGUAAGCUUUCA”, which target inhibition is on record?
A: 33.7%

Q: How did the target inhibition turn out when “sense UGGGAUGCCUGGAAUGAGC / antisense GCUCAUUCCAGGCAUCCCA” was run?
A: 4.9%

Q: “sense UUACUGACUUUCCUUGAGU / antisense ACUCAAGGAAAGUCAGUAA” was tested. Which target inhibition did it give?
A: -8.35%
